Test results as given in patent US9745266B2 (THE REGENTS OF THE UNIVERSITY OF COLORADO, A BODY CORPORATE, priority 2013, dated 2017).
Converted amounts (≈) assume the structure as drawn.

Experiment: Mammalian cytotoxicity, CellTiter-Glo viability assay
Type: cell-based, human
Details: human, HeLa cells
Experimental: To evaluate the cytotoxicity of Of1 in mammalian cells, a cell viability assay was carried out using CellTiter-Glo luminescent cell viability assay kit (Promega). Human cervixcal adenocarcinoma HeLa cells were seeded on white, cell-culture treated 96-well plates (Corning: 3917) with Dulbecco's modified Eagle's medium (DMEM) supplemented with 10% fetal calf serum (FCS), 1% penicillin/streptomycin, at the densities of 20,000 cells/well. The medium volume for each well was 100 μL. Cells were incubated at 37° C. in 5% CO2/95% air for 16 hours. The medium was removed from each well and replaced with 99 μL of warmed fresh medium. To each well, 1 μL of Of1 analog was added in DMSO to final concentrations of 0.5-32 μg/mL. Each series was performed in triplicate. After incubation at 37° C. for another 24 hours, the plates were equilibrated to room temperature for 30 minutes. 100 μL of CellTiter-Glo reagent (Promega) was added to each well and mixed for 2 minutes on an orbital shaker. The plate was incubated at room temperature for another 10 minutes to stabilize luminescent signal. The luminescence of each sample was recorded in an Envision Multilabel Plate Reader (Perkin Elmer).

C=C1CCCC2Nc3c(F)cc(Br)cc3C12CCNS(=O)(=O)c1ccc(Br)cc1C(F)(F)F (stereo not shown) [Cpd 13l, 4-Bromo-N-[2-(6-bromo-8-fluoro-4-methylidene-2,3,4,4a,9,9a-hexahydro-1H-carbazol-4a-yl)ethyl]-2-(trifluoromethyl)benzene-1-sulfonamide]
GI50 at 24 h: 21 µg/mL (≈ 34.3 µM)

C=C1CCCC2Nc3c(F)cc(Br)cc3C12CCNS(=O)(=O)c1ccc(Cl)nc1 (stereo not shown) [Cpd 13r, N-[2-(6-bromo-8-fluoro-4-methylidene-2,3,4,4a,9,9a-hexahydro-1H-carbazol-4a-yl)ethyl]-6-chloropyridine-3-sulfonamide]
GI50 at 24 h: 16.7 µg/mL (≈ 33.3 µM)

C=C1CCCC2Nc3c(F)cc(Br)cc3C12CCNS(=O)(=O)c1ccc(I)cc1 (stereo not shown) [Cpd 13e, N-[2-(6-bromo-8-fluoro-4-methylidene-2,3,4,4a,9,9a-hexahydro-1H-carbazol-4a-yl)ethyl]-4-iodobenzene-1-sulfonamide]
GI50 at 24 h: 19.6 µg/mL (≈ 33.1 µM)

C=C1CCCC2Nc3c(F)cc(Br)cc3C12CCNS(=O)(=O)c1ccc(Br)c(Br)c1 (stereo not shown) [Cpd 13j, 3,4-Dibromo-N-[2-(6-bromo-8-fluoro-4-methylidene-2,3,4,4a,9,9a-hexahydro-1H-carbazol-4a-yl)ethyl]benzene-1-sulfonamide]
GI50 at 24 h: 20 µg/mL (≈ 32.1 µM)

C=C1CCCC2Nc3c(F)cc(Br)cc3C12CCNS(=O)(=O)c1ccc(NC(C)=O)cc1 (stereo not shown) [Cpd 13g, N-(4-{[2-(6-bromo-8-fluoro-4-methylidene-2,3,4,4a,9,9a-hexahydro-1H-carbazol-4a-yl)ethyl]sulfamoyl}phenyl)acetamide]
GI50 at 24 h: 32 µg/mL (≈ 61.3 µM)

C=C1CCCC2Nc3c(F)cc(Br)cc3C12CCNS(=O)(=O)c1ccc(Cl)cc1 (stereo not shown) [Cpd 6l, N-[2-(6-bromo-8-fluoro-4-methylidene-2,3,4,4a,9,9a-hexahydro-1H-carbazol-4a-yl)ethyl]-4-chlorobenzene-1-sulfonamide]
GI50 at 24 h: 18.1 µg/mL (≈ 36.2 µM)

C=C1CCCC2Nc3c(F)cc(Br)cc3C12CCNS(=O)(=O)c1ccc(Br)cc1 (stereo not shown) [Cpd 13d, 4-Bromo-N-[2-(6-bromo-8-fluoro-4-methylidene-2,3,4,4a,9,9a-hexahydro-1H-carbazol-4a-yl)ethyl]benzene-1-sulfonamide]
GI50 at 24 h: 22 µg/mL (≈ 40.4 µM)

C=C1CCCC2Nc3c(F)cc(Br)cc3C12CCNS(=O)(=O)c1ccc(Br)c(C(F)(F)F)c1 (stereo not shown) [Cpd 13m, 4-Bromo-N-[2-(6-bromo-8-fluoro-4-methylidene-2,3,4,4a,9,9a-hexahydro-1H-carbazol-4a-yl)ethyl]-3-(trifluoromethyl)benzene-1-sulfonamide]
GI50 at 24 h: 8.3 µg/mL (≈ 13.6 µM)

C=C1CCCC2Nc3c(F)cc(Br)cc3C12CCNS(=O)(=O)c1cc(Br)c(Br)s1 (stereo not shown) [Cpd 13p, 4,5-dibromo-N-[2-(6-bromo-8-fluoro-4-methylidene-2,3,4,4a,9,9a-hexahydro-1H-carbazol-4a-yl)ethyl]thiophene-2-sulfonamide]
GI50 at 24 h: 14.6 µg/mL (≈ 23.2 µM)

C=C1CCCC2Nc3c(F)cc(Br)cc3C12CCNS(=O)(=O)c1cn(C)cn1 (stereo not shown) [Cpd 13s, N-[2-(6-bromo-8-fluoro-4-methylidene-2,3,4,4a,9,9a-hexahydro-1H-carbazol-4a-yl)ethyl]-1-methyl-1H-imidazole-4-sulfonamide]
GI50 at 24 h: 23 µg/mL (≈ 49 µM)

C=C1CCCC2Nc3ccc(Br)cc3C12CCNS(=O)(=O)c1ccc(Cl)c(Cl)c1 (stereo not shown) [Cpd 12i, N-[2-(6-bromo-4-methylidene-2,3,4,4a,9,9a-hexahydro-1H-carbazol-4a-yl)ethyl]-3,4-dichlorobenzene-1-sulfonamide]
GI50 at 24 h: 12.8 µg/mL (≈ 24.8 µM)

C=C1CCCC2Nc3c(F)cc(Br)cc3C12CCNS(=O)(=O)c1cc2ccccc2o1 (stereo not shown) [Cpd 13t, N-[2-(6-bromo-8-fluoro-4-methylidene-2,3,4,4a,9,9a-hexahydro-1H-carbazol-4a-yl)ethyl]-1-benzofuran-2-sulfonamide]
GI50 at 24 h: 12.3 µg/mL (≈ 24.3 µM)

C=C1CCCC2Nc3ccc(Br)cc3C12CCNS(=O)(=O)c1ccc(Br)cc1 (stereo not shown) [Cpd 12g, 4-Bromo-N-[2-(6-bromo-4-methylidene-2,3,4,4a,9,9a-hexahydro-1H-carbazol-4a-yl)ethyl]benzene-1-sulfonamide]
GI50 at 24 h: 40 µg/mL (≈ 76 µM)

C=C1CCCC2Nc3c(F)cc(Br)cc3C12CCNS(=O)(=O)c1ccc(Br)c(C)c1 (stereo not shown) [Cpd 13o, 4-bromo-N-[2-(6-bromo-8-fluoro-4-methylidene-2,3,4,4a,9,9a-hexahydro-1H-carbazol-4a-yl)ethyl]-3-methylbenzene-1-sulfonamide]
GI50 at 24 h: 12.5 µg/mL (≈ 22.4 µM)

C=C1CCCC2Nc3c(F)cc(Br)cc3C12CCNS(=O)(=O)c1ccc(Cl)c(Cl)c1 (stereo not shown) [Cpd 13f, N-[2-(6-bromo-8-fluoro-4-methylidene-2,3,4,4a,9,9a-hexahydro-1H-carbazol-4a-yl)ethyl]-3,4-dichlorobenzene-1-sulfonamide]
GI50 at 24 h: 31 µg/mL (≈ 58 µM)

C=C1CCC[C@@H]2Nc3c(F)cc(Br)cc3[C@]12CCNS(=O)(=O)c1ccc(OC(F)F)c(Cl)c1 (relative stereo)
GI50 at 24 h: 15.4 µg/mL (≈ 27.2 µM)

C=C1CCCC2Nc3c(F)cc(Br)cc3C12CCNS(=O)(=O)c1ccc(OC)cc1 (stereo not shown) [Cpd 13a, N-[2-(6-bromo-8-fluoro-4-methylidene-2,3,4,4a,9,9a-hexahydro-1H-carbazol-4a-yl)ethyl]-4-methoxybenzene-1-sulfonamide]
GI50 at 24 h: 49 µg/mL (≈ 98.9 µM)

C=C1CCCC2Nc3c(F)cc(Br)cc3C12CCNS(=O)(=O)c1ccc(C)cc1 (stereo not shown) [Cpd 13b, N-[2-(6-bromo-8-fluoro-4-methylidene-2,3,4,4a,9,9a-hexahydro-1H-carbazol-4a-yl)ethyl]-4-methylbenzene-1-sulfonamide]
GI50 at 24 h: 22 µg/mL (≈ 45.9 µM)

C=C1CCCC2Nc3ccc(Br)cc3C12CCNS(=O)(=O)c1ccc(I)cc1 (stereo not shown) [Cpd 12h, N-[2-(6-bromo-4-methylidene-2,3,4,4a,9,9a-hexahydro-1H-carbazol-4a-yl)ethyl]-4-iodobenzene-1-sulfonamide]
GI50 at 24 h: 33 µg/mL (≈ 57.6 µM)

C=C1CCCC2Nc3c(F)cc(Br)cc3C12CCNS(=O)(=O)c1cncc(Br)c1 (stereo not shown) [Cpd 13q, 5-bromo-N-[2-(6-bromo-8-fluoro-4-methylidene-2,3,4,4a,9,9a-hexahydro-1H-carbazol-4a-yl)ethyl]pyridine-3-sulfonamide]
GI50 at 24 h: 11.2 µg/mL (≈ 20.5 µM)

C=C1CCCC2Nc3c(F)cc(Br)cc3C12CCNS(=O)(=O)c1ccc(C#N)cc1 (stereo not shown) [Cpd 13h, N-[2-(6-bromo-8-fluoro-4-methylidene-2,3,4,4a,9,9a-hexahydro-1H-carbazol-4a-yl)ethyl]-4-cyanobenzene-1-sulfonamide]
GI50 at 24 h: 17 µg/mL (≈ 34.7 µM)

C=C1CCCC2Nc3c(F)cc(Br)cc3C12CCNS(=O)(=O)c1ccc(Br)cc1C (stereo not shown) [Cpd 13n, 4-bromo-N-[2-(6-bromo-8-fluoro-4-methylidene-2,3,4,4a,9,9a-hexahydro-1H-carbazol-4a-yl)ethyl]-2-methylbenzene-1-sulfonamide]
GI50 at 24 h: 13.5 µg/mL (≈ 24.2 µM)

C=C1CCCC2Nc3c(F)cc(Br)cc3C12CCNS(=O)(=O)c1ccc(F)cc1 (stereo not shown) [Cpd 13c, N-[2-(6-bromo-8-fluoro-4-methylidene-2,3,4,4a,9,9a-hexahydro-1H-carbazol-4a-yl)ethyl]-4-fluorobenzene-1-sulfonamide]
GI50 at 24 h: 18.3 µg/mL (≈ 37.9 µM)

C=C1CCCC2Nc3c(F)cc(Br)cc3C12CCNS(=O)(=O)c1ccc(C(F)(F)F)cc1 (stereo not shown) [Cpd 13i, N-[2-(6-bromo-8-fluoro-4-methylidene-2,3,4,4a,9,9a-hexahydro-1H-carbazol-4a-yl)ethyl]-4-(trifluoromethyl)benzene-1-sulfonamide]
GI50 at 24 h: 8.7 µg/mL (≈ 16.3 µM)

C=C1CCCC2Nc3ccc(Cl)cc3C12CCNS(=O)(=O)c1ccc(Cl)cc1 (stereo not shown) [Cpd 6a, 4-Chloro-N-[2-(6-chloro-4-methylidene-2,3,4,4a,9,9a-hexahydro-1H-carbazol-4a-yl)ethyl]benzene-1-sulfonamide]
GI50 at 24 h: 35 µg/mL (≈ 80 µM)
